US6602700B1, “Phenolic acid esterases, coding sequences and methods” (University of Georgia Research Foundation, Inc., priority 1998, dated 2003)

target: T1, FAE (Acetivibrio thermocellus, UniProt P10478); test: Inhibition of XynZ FAE by ferulic acid and sugars; assay type: biochemical, Clostridium thermocellum
T1 construct: made in house; host or cells: E. coli BL21(DE3)
T1 sequence (P10478 20-286): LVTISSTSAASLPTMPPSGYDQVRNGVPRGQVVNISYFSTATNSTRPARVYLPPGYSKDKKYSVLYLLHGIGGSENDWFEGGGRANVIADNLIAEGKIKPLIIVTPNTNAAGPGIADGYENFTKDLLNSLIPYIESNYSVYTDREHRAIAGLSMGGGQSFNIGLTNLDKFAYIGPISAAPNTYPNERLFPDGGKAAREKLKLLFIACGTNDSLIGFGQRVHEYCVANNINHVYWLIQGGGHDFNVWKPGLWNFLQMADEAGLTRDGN

Compound	Inhibition of FAE
O=C[C@@H](O)[C@H](O)[C@H](O)CO [arabinose]	not
COc1cc(/C=C/C(=O)O)ccc1O [ferulic acid]	inhibited
O=C[C@H](O)[C@@H](O)[C@H](O)CO [xylose]	not
